We go through eleven compounds from PubChem BioAssay AID1259407 (Chemical Carcinogenesis Research Information System (CCRIS), 2018).

This series has as its system CCRIS mutagenicity, Ames/micronucleus/aberration tests. Description: CCRIS mutagenicity studies.
Setting [1] is: Test System: AMES SALMONELLA TYPHIMURIUM, Strain/Indicator: TA98, Metabolic Activation: NONE, Method: STANDARD PLATE.
[2] abbreviates: Test System: AMES SALMONELLA TYPHIMURIUM, Strain/Indicator: TA100, Metabolic Activation: NONE, Method: STANDARD PLATE.
[3] abbreviates: Test System: Ames Salmonella typhimurium, Strain/Indicator: TA98, Metabolic Activation: None, Method: Preincubation.
[4] abbreviates: Test System: Ames Salmonella typhimurium, Strain/Indicator: TA100, Metabolic Activation: None, Method: Preincubation.
[5] abbreviates: Test System: AMES SALMONELLA TYPHIMURIUM, Strain/Indicator: TA100, Metabolic Activation: RAT, LIVER, S-9, AROCLOR 1254, Method: PREINCUBATION

Molecules are shown by their SMILES. Active and inactive are the calls of the source. No rule for the calls is given here.

Turning to `Nc1ccc(-c2ccc(N)c([N+](=O)[O-])c2)cc1[N+](=O)[O-]`, the mutagenic call (Test System: AMES SALMONELLA TYPHIMURIUM, Strain/Indicator: TA98(1,8-DNP6), Metabolic Activation: NONE, Method: STANDARD PLATE) was “inactive; negative”; the mutagenic call (Test System: AMES SALMONELLA TYPHIMURIUM, Strain/Indicator: TA98(1,8-DNP6), Metabolic Activation: S-9, Method: STANDARD PLATE) is “active; positive”; the mutagenic call under setting [1] is “active; positive”; the mutagenic call (Test System: AMES SALMONELLA TYPHIMURIUM, Strain/Indicator: TA98, Metabolic Activation: S-9, Method: STANDARD PLATE) was “active; positive”; the mutagenic call under setting [2] was “inactive; negative”; the mutagenic call (Test System: AMES SALMONELLA TYPHIMURIUM, Strain/Indicator: TA100, Metabolic Activation: S-9, Method: STANDARD PLATE) was “active; positive”.

For the compound `CC(C)CCCC(C)CCCC(C)CCCCC(C)CCCC(C)CCCC(C)C` (centres undefined), the mutagenic call is, setting by setting: under setting [3], “inactive; negative”; (Test System: Ames Salmonella typhimurium, Strain/Indicator: TA98, Metabolic Activation: Rat, Liver, S9, Phenobarbital and 5,6-benzoflavone, Method: Preincubation) “inactive; negative”; under setting [4], “inactive; negative”; (Test System: Ames Salmonella typhimurium, Strain/Indicator: TA100, Metabolic Activation: Rat, Liver, S9, Phenobarbital and 5,6-benzoflavone, Method: Preincubation) “inactive; negative”; (Test System: Ames Salmonella typhimurium, Strain/Indicator: TA1535, Metabolic Activation: None, Method: Preincubation) “inactive; negative”; (Test System: Ames Salmonella typhimurium, Strain/Indicator: TA1535, Metabolic Activation: Rat, Liver, S9, Phenobarbital and 5,6-benzoflavone, Method: Preincubation) “inactive; negative”. Also, the mutagenic call runs as follows: (Test System: Ames Salmonella typhimurium, Strain/Indicator: TA1537, Metabolic Activation: None, Method: Preincubation) “inactive; negative”; (Test System: Ames Salmonella typhimurium, Strain/Indicator: TA1537, Metabolic Activation: Rat, Liver, S9, Phenobarbital and 5,6-benzoflavone, Method: Preincubation) “inactive; negative”; (Test System: E. coli, Strain/Indicator: WP2uvrA/pKM101, Metabolic Activation: None, Method: Preincubation) “inactive; negative”; (Test System: E. coli, Strain/Indicator: WP2uvrA/pKM101, Metabolic Activation: Rat, Liver, S9, Phenobarbital and 5,6-benzoflavone, Method: Preincubation) “inactive; negative”.

For the compound `O=C(O)CCC(=O)N(O)c1ccc(Cl)cc1`, the mutagenic call runs as follows: under setting [1], “inactive; negative”; (Test System: AMES SALMONELLA TYPHIMURIUM, Strain/Indicator: TA98, Metabolic Activation: RAT, LIVER, S-9, AROCLOR 1254, Method: STANDARD PLATE) “active; positive”; under setting [2], “inactive; negative”; (Test System: AMES SALMONELLA TYPHIMURIUM, Strain/Indicator: TA100, Metabolic Activation: RAT, LIVER, S-9, AROCLOR 1254, Method: STANDARD PLATE) “active; positive”.

`Cc1cc2ccccc2c2cc3ccccc3cc12`: the mutagenic call (Test System: AMES SALMONELLA TYPHIMURIUM, Strain/Indicator: TA100, Metabolic Activation: RAT, INTACT HEPATOCYTES, AROCLOR 1254, Method: PREINCUBATION) is “active; positive”; the mutagenic call under setting [5] was “active; positive”; the mutagenic call (Test System: AMES SALMONELLA TYPHIMURIUM, Strain/Indicator: TA100, Metabolic Activation: RAT, NADPH-FORTIFIED HOMOGENIZED HEPATOCYTES, AROCLOR 1254, Method: PREINCUBATION) was “active; positive”; the mutagenic call (Test System: AMES SALMONELLA TYPHIMURIUM, Strain/Indicator: TA100, Metabolic Activation: RAT, SONICATED HEPATOCYTES, AROCLOR 1254, Method: PREINCUBATION) is “active; positive”.

Regarding `CCCCCCOC(=O)NO`, under “Test System: E. COLI, Strain/Indicator: WP2 UVRA, Metabolic Activation: NONE, Method: FLUCTUATION TEST”, the mutagenic call was “active; positive”.

For the compound `C[C@@H](C(=O)O)N(N=[N+]=[N-])C(=O)OC(C)(C)C`, the mutagenic call under setting [2] was “active; positive”.

As for `CC(C)c1cc(-c2ccccc2)cc(C(C)C)c1N`, the mutagenic call under setting [1] is “inactive; negative”; the mutagenic call (Test System: AMES SALMONELLA TYPHIMURIUM, Strain/Indicator: TA98, Metabolic Activation: RAT LIVER S-9, AROCLOR, Method: STANDARD PLATE) was “inactive; negative”; the mutagenic call under setting [2] is “inactive; negative”; the mutagenic call (Test System: AMES SALMONELLA TYPHIMURIUM, Strain/Indicator: TA100, Metabolic Activation: RAT LIVER S-9, AROCLOR, Method: STANDARD PLATE) was “inactive; negative”.

`Cc1nn(C)c(Oc2ccccc2)c1/C=N/OCc1ccc(C(=O)OC(C)(C)C)cc1`: the mutagenic call runs as follows: (End Point: In vitro chromosomal aberrations, Test System: Human lymphocytes/Male, Metabolic Activation: None) “inactive; negative”; (End Point: In vitro chromosomal aberrations, Test System: Human lymphocytes/Male, Metabolic Activation: Rat, Liver, S-9) “inactive; negative”; (End Point: In vivol micronucleus, Species: Mouse, Strain/Sex: CD-1, Route: Oral) “inactive; negative”.

In the case of `CC(C)(Oc1ccc(C2CCCc3ccccc32)cc1)C(=O)O` (centres undefined), the mutagenic call is “inactive; negative” (Test System: AMES SALMONELLA TYPHIMURIUM, Strain/Indicator: TA98, Metabolic Activation: NONE); “inactive; negative” (Test System: AMES SALMONELLA TYPHIMURIUM, Strain/Indicator: TA98, Metabolic Activation: RAT, LIVER, S-9, AROCLOR 1254); “inactive; negative” (Test System: AMES SALMONELLA TYPHIMURIUM, Strain/Indicator: TA102, Metabolic Activation: NONE); “inactive; negative” (Test System: AMES SALMONELLA TYPHIMURIUM, Strain/Indicator: TA102, Metabolic Activation: RAT, LIVER, S-9, AROCLOR 1254); “inactive; negative” (Test System: AMES SALMONELLA TYPHIMURIUM, Strain/Indicator: TA104, Metabolic Activation: NONE); “inactive; negative” (Test System: AMES SALMONELLA TYPHIMURIUM, Strain/Indicator: TA104, Metabolic Activation: RAT, LIVER, S-9, AROCLOR 1254). Where the note is “Test System: UDS RAT HEPATOCYTES, Strain/Indicator: THY INCORP, Metabolic Activation: NONE, Method: LIQUID SCINTILLATION COUNTING”, the mutagenic call is “inactive; negative”.

As to `Cc1cc2c(c3cc4ccccc4cc13)C=C[C@H](O)[C@H]2O`, the mutagenic call under setting [5] is “active; positive”.

As to `Nc1ccc(-c2cc(Cl)c(N)cc2[N+](=O)[O-])cc1Cl`, the mutagenic call is “active; positive. weak response” under setting [3]; “active; positive” (Test System: Ames Salmonella typhimurium, Strain/Indicator: TA98, Metabolic Activation: Rat, Liver, S-9, Phenobarbital and 5,6-benzoflavone, Method: Preincubation); “inactive; negative” under setting [4]; “active; positive. weak response” (Test System: Ames Salmonella typhimurium, Strain/Indicator: TA100, Metabolic Activation: Rat, Liver, S-9, Phenobarbital and 5,6-benzoflavone, Method: Preincubation); “active; positive” (Test System: Ames Salmonella typhimurium, Strain/Indicator: YG1024, Metabolic Activation: None, Method: Preincubation); “active; positive” (Test System: Ames Salmonella typhimurium, Strain/Indicator: YG1024, Metabolic Activation: Rat, Liver, S-9, Phenobarbital and 5,6-benzoflavone, Method: Preincubation). In addition, the mutagenic call runs as follows: (Test System: Ames Salmonella typhimurium, Strain/Indicator: YG1029, Metabolic Activation: None, Method: Preincubation) “inactive; negative”; (Test System: Ames Salmonella typhimurium, Strain/Indicator: YG1029, Metabolic Activation: Rat, Liver, S-9, Phenobarbital and 5,6-benzoflavone, Method: Preincubation) “active; positive. weak response”.
